Measured values published in ChEMBL document CHEMBL3585344, “Thiazole-based aminopyrimidines and N-phenylpyrazolines as potent antimicrobial agents: synthesis and biological evaluation” (2014).
Converted amounts (≈) assume the structure as drawn.

Columns and labels:
Pseudomonas aeruginosa [1] = assay: Antibacterial activity against Pseudomonas aeruginosa ATCC 27853 after 24 hrs by microdilution method; type: functional; details: ATCC 27853, 24 h
Micrococcus flavus [2] = assay: Antibacterial activity against Micrococcus flavus ATCC 10240 after 24 hrs by microdilution method; type: functional; details: ATCC 10240, 24 h
Enterococcus faecalis [3] = assay: Bactericidal activity against Enterococcus faecalis ATCC 7080 isolated from human after 72 hrs by microdilution method; type: functional
Staphylococcus aureus [4] = assay: Bactericidal activity against Staphylococcus aureus ATCC 6538 after 72 hrs by microdilution method; type: functional
Escherichia coli [5] = assay: Bactericidal activity against Escherichia coli ATCC 35210 after 72 hrs by microdilution method; type: functional
Salmonella typhimurium [6] = assay: Bactericidal activity against Salmonella typhimurium ATCC 13311 after 72 hrs by microdilution method; type: functional, Salmonella enterica subsp. enterica serovar Typhimurium
Listeria monocytogenes [7] = assay: Antibacterial activity against Listeria monocytogenes NCTC 7973 after 24 hrs by microdilution method; type: functional; details: NCTC 7973, 24 h
Staphylococcus aureus [8] = assay: Antibacterial activity against Staphylococcus aureus ATCC 6538 after 24 hrs by microdilution method; type: functional; details: ATCC 6538, 24 h
Enterobacter cloacae [9] = assay: Bactericidal activity against Enterobacter cloacae ATCC 35030 isolated from human after 72 hrs by microdilution method; type: functional
Listeria monocytogenes [10] = assay: Bactericidal activity against Listeria monocytogenes NCTC 7973 after 72 hrs by microdilution method; type: functional
Enterococcus faecalis [11] = assay: Antibacterial activity against Enterococcus faecalis ATCC 7080 isolated from human after 24 hrs by microdilution method; type: functional; details: ATCC 7080, 24 h
Micrococcus flavus [12] = assay: Bactericidal activity against Micrococcus flavus ATCC 10240 after 72 hrs by microdilution method; type: functional
Enterobacter cloacae [13] = assay: Antibacterial activity against Enterobacter cloacae ATCC 35030 isolated from human after 24 hrs by microdilution method; type: functional; details: ATCC 35030, 24 h
Bacillus cereus [14] = assay: Antibacterial activity against Bacillus cereus clinical isolate after 24 hrs by microdilution method; type: functional
Escherichia coli [15] = assay: Antibacterial activity against Escherichia coli ATCC 35210 after 24 hrs by microdilution method; type: functional; details: ATCC 35210, 24 h
Pseudomonas aeruginosa [16] = assay: Bactericidal activity against Pseudomonas aeruginosa ATCC 27853 after 72 hrs by microdilution method; type: functional
Salmonella typhimurium [17] = assay: Antibacterial activity against Salmonella typhimurium ATCC 13311 after 24 hrs by microdilution method; type: functional, Salmonella enterica subsp. enterica serovar Typhimurium; details: Salmonella enterica, ATCC 13311, 24 h
Bacillus cereus [18] = assay: Bactericidal activity against Bacillus cereus clinical isolate after 72 hrs by microdilution method; type: functional
Aspergillus versicolor [19] = assay: Fungicidal activity against Aspergillus versicolor ATCC 11730 after 72 hrs by microdilution method; type: functional
Aspergillus niger [20] = assay: Antifungal activity against Aspergillus niger ATCC 6275 after 72 hrs by microdilution method; type: functional; details: ATCC 6275, 72 h
Penicillium ochrochloron [21] = assay: Antifungal activity against Penicillium ochrochloron ATCC 9112 after 72 hrs by microdilution method; type: functional; details: ATCC 9112, 72 h
Aspergillus flavus [22] = assay: Antifungal activity against Aspergillus flavus ATCC 9643 after 72 hrs by microdilution method; type: functional; details: ATCC 9643, 72 h
Talaromyces funiculosus [23] = assay: Antifungal activity against Penicillium funiculosum ATCC 36839 after 72 hrs by microdilution method; type: functional; details: ATCC 36839, 72 h
Penicillium ochrochloron [24] = assay: Fungicidal activity against Penicillium ochrochloron ATCC 9112 after 72 hrs by microdilution method; type: functional
Trichoderma viride [25] = assay: Fungicidal activity against Trichoderma viride IAM 5061 after 72 hrs by microdilution method; type: functional
Talaromyces funiculosus [26] = assay: Fungicidal activity against Penicillium funiculosum ATCC 36839 after 72 hrs by microdilution method; type: functional
Trichoderma viride [27] = assay: Antifungal activity against Trichoderma viride IAM 5061 after 72 hrs by microdilution method; type: functional; details: IAM 5061, 72 h
Aspergillus ochraceus [28] = assay: Antifungal activity against Aspergillus ochraceus ATCC 12066 after 72 hrs by microdilution method; type: functional; details: ATCC 12066, 72 h
Aspergillus fumigatus [29] = assay: Fungicidal activity against Aspergillus fumigatus isolated from human after 72 hrs by microdilution method; type: functional
Aspergillus ochraceus [30] = assay: Fungicidal activity against Aspergillus ochraceus ATCC 12066 after 72 hrs by microdilution method; type: functional
Aspergillus niger [31] = assay: Fungicidal activity against Aspergillus niger ATCC 6275 after 72 hrs by microdilution method; type: functional
Aspergillus flavus [32] = assay: Fungicidal activity against Aspergillus flavus ATCC 9643 after 72 hrs by microdilution method; type: functional
Aspergillus versicolor [33] = assay: Antifungal activity against Aspergillus versicolor ATCC 11730 after 72 hrs by microdilution method; type: functional; details: ATCC 11730, 72 h
Aspergillus fumigatus [34] = assay: Antifungal activity against Aspergillus fumigatus isolated from human after 72 hrs by microdilution method; type: functional

Row | MIC (Pseudomonas aeruginosa [1]) [µM] | MIC (Micrococcus flavus [2]) [µM] | MIC (Listeria monocytogenes [7]) [µM] | MIC (Staphylococcus aureus [8]) [µM] | MIC (Enterococcus faecalis [11]) [µM] | MIC (Enterobacter cloacae [13]) [µM] | MIC (Bacillus cereus [14]) [µM] | MIC (Escherichia coli [15]) [µM] | MIC (Salmonella typhimurium [17]) [µM] | MIC (Aspergillus niger [20]) [µM] | Compound | MBC99.5 (Enterococcus faecalis [3]) [×10⁻² umol/ml] | MBC99.5 (Staphylococcus aureus [4]) [×10⁻² umol/ml] | MBC99.5 (Escherichia coli [5]) [×10⁻² umol/ml] | MBC99.5 (Salmonella typhimurium [6]) [×10⁻² umol/ml] | MBC99.5 (Enterobacter cloacae [9]) [×10⁻² umol/ml] | MBC99.5 (Listeria monocytogenes [10]) [×10⁻² umol/ml] | MBC99.5 (Micrococcus flavus [12]) [×10⁻² umol/ml] | MBC99.5 (Pseudomonas aeruginosa [16]) [×10⁻² umol/ml] | MBC99.5 (Bacillus cereus [18]) [×10⁻² umol/ml] | MFC99.5 (Aspergillus versicolor [19]) [×10⁻² umol/ml] | other results
1 | 744 (≈ 260 µg/mL) | 248 (≈ 86.7 µg/mL) | 372 (≈ 130 µg/mL) | 248 (≈ 86.7 µg/mL) | 248 (≈ 86.7 µg/mL) | 248 (≈ 86.7 µg/mL) | 248 (≈ 86.7 µg/mL) | 372 (≈ 130 µg/mL) | 248 (≈ 86.7 µg/mL) |  | CC1(C)S[C@@H]2[C@H](NC(=O)[C@H](N)c3ccccc3)C(=O)N2[C@H]1C(=O)O [AMPICILLIN] | 37.2 | 37.2 | 49.2 | 49.2 | 37.2 | 74.4 | 37.2 | 124 | 37.2 |  | 
2 | 290 (≈ 99.9 µg/mL) | 58 (≈ 20 µg/mL) | 14.5 (≈ 4.99 µg/mL) | 14.5 (≈ 4.99 µg/mL) | 290 (≈ 99.9 µg/mL) |  | 58 (≈ 20 µg/mL) | 348 (≈ 120 µg/mL) | 290 (≈ 99.9 µg/mL) | 58 (≈ 20 µg/mL) | Cc1nc(-c2ccccc2)sc1-c1cc(-c2ccccc2)nc(N)n1 | 34.8 | 5.8 | 40.6 | 34.8 |  | 36.25 | 29 | 40.6 | 40.6 | 9 | MIC (Penicillium ochrochloron [21]): 348 µM (≈ 120 µg/mL); MIC (Aspergillus flavus [22]): 58 µM (≈ 20 µg/mL); MIC (Talaromyces funiculosus [23]): 348 µM (≈ 120 µg/mL); MFC99.5 (Penicillium ochrochloron [24]): 40.6 ×10⁻² umol/ml; MFC99.5 (Trichoderma viride [25]): 29 ×10⁻² umol/ml; MFC99.5 (Talaromyces funiculosus [26]): 34.8 ×10⁻² umol/ml; MIC (Trichoderma viride [27]): 14.5 µM (≈ 4.99 µg/mL); MIC (Aspergillus ochraceus [28]): 14.5 µM (≈ 4.99 µg/mL); MFC99.5 (Aspergillus fumigatus [29]): 34.8 ×10⁻² umol/ml; MFC99.5 (Aspergillus ochraceus [30]): 5.8 ×10⁻² umol/ml; MFC99.5 (Aspergillus niger [31]): 40.6 ×10⁻² umol/ml; MFC99.5 (Aspergillus flavus [32]): 29 ×10⁻² umol/ml; MIC (Aspergillus versicolor [33]): 14.5 µM (≈ 4.99 µg/mL); MIC (Aspergillus fumigatus [34]): 58 µM (≈ 20 µg/mL)
3 | 27.3 (≈ 10 µg/mL) | 54.6 (≈ 20 µg/mL) | 54.6 (≈ 20 µg/mL) | 27.3 (≈ 10 µg/mL) | 54.6 (≈ 20 µg/mL) |  | 54.6 (≈ 20 µg/mL) | 54.6 (≈ 20 µg/mL) | 54.6 (≈ 20 µg/mL) | 478 (≈ 175 µg/mL) | CNc1nc(C)c(C2=NN(c3ccccc3)C(c3ccc(F)cc3)C2)s1 (stereo not given) | 27.3 | 27.3 | 47.8 | 27.3 |  | 95.5 | 47.8 | 27.3 | 27.3 | 21.4 | MIC (Penicillium ochrochloron [21]): 214 µM (≈ 78.4 µg/mL); MIC (Aspergillus flavus [22]): 54.6 µM (≈ 20 µg/mL); MIC (Talaromyces funiculosus [23]): 109 µM (≈ 40 µg/mL); MFC99.5 (Penicillium ochrochloron [24]): 47.8 ×10⁻² umol/ml; MFC99.5 (Trichoderma viride [25]): 47.8 ×10⁻² umol/ml; MFC99.5 (Talaromyces funiculosus [26]): 27.3 ×10⁻² umol/ml; MIC (Trichoderma viride [27]): 109 µM (≈ 40 µg/mL); MIC (Aspergillus ochraceus [28]): 54.6 µM (≈ 20 µg/mL); MFC99.5 (Aspergillus fumigatus [29]): 10.92 ×10⁻² umol/ml; MFC99.5 (Aspergillus ochraceus [30]): 27.3 ×10⁻² umol/ml; MFC99.5 (Aspergillus niger [31]): 95.5 ×10⁻² umol/ml; MFC99.5 (Aspergillus flavus [32]): 47.8 ×10⁻² umol/ml; MIC (Aspergillus versicolor [33]): 54.6 µM (≈ 20 µg/mL); MIC (Aspergillus fumigatus [34]): 54.6 µM (≈ 20 µg/mL)
4 | 172 (≈ 100 µg/mL) | 86 (≈ 50 µg/mL) | 258 (≈ 150 µg/mL) | 172 (≈ 100 µg/mL) | 43 (≈ 25 µg/mL) | 43 (≈ 25 µg/mL) | 43 (≈ 25 µg/mL) | 172 (≈ 100 µg/mL) | 172 (≈ 100 µg/mL) |  | CN[C@@H]1[C@H](O[C@H]2[C@H](O[C@H]3[C@H](O)[C@@H](O)[C@H](N=C(N)N)[C@@H](O)[C@@H]3N=C(N)N)O[C@@H](C)[C@]2(O)C=O)O[C@@H](CO)[C@H](O)[C@H]1O [STREPTOMYCIN] | 8.6 | 34.4 | 34.4 | 34.4 | 8.6 | 51.6 | 17.2 | 34.4 | 8.6 |  | 
